# According to patent EP4656642A1, “ESTROGEN RECEPTOR PROTEOLYSIS TARGETING CHIMERA COMPOUND AND USE THEREOF” (GAN & LEE PHARM CO., LTD, priority 2023, dated 2024):
# Tests used:
# Format in all cases: cell-based
# ERα [1] = target: T1, ERα (Homo sapiens, UniProt P03372); test: Degradation of ERα in T-47D cells (immunoblotting, 4 h); parameters: host or cells: T-47D
# T1 sequence (P03372 1-595): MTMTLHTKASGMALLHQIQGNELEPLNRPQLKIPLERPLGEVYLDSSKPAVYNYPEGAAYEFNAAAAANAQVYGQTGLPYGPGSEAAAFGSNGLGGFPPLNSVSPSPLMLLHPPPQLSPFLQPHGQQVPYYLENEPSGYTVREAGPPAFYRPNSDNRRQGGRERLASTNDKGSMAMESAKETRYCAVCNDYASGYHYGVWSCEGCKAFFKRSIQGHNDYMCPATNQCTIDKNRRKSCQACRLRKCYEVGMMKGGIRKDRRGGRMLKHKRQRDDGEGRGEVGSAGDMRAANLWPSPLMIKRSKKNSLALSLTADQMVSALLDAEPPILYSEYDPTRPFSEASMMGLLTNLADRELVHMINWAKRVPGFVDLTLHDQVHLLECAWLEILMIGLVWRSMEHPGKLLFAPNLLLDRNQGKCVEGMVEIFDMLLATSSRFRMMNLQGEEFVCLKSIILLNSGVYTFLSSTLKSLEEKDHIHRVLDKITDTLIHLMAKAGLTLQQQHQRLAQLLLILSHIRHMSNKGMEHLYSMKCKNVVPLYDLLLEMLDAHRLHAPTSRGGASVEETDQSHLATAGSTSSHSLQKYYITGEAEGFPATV
# How it was run: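 T-47D cells were treated with compound (final 0.15-1000 nM, DMSO) for 4 h at 37°C, 5% CO2. Cells were lysed in RIPA buffer with protease inhibitor, and ERα protein in the cleared lysate was measured by immunoblotting.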
# MCF-7 cells [2] = test: Inhibition of cell proliferation of MCF-7 cells (CCK-8, 6 days); conditions: 6 days of treatment, Table 4
# Excerpt: Test Example 3 Inhibitory effect of the PROTAC compounds provided in the present disclosure on cell proliferation of MCF-7 cells
# The complete medium required for MCF-7 cells (source ATCC) was DMEM (gibco, Product number :11995-065) basal medium containing 10% fetal bovine serum. MCF-7 cells were inoculated in 96-well plates at a density of 800 cells/well, and different concentrations of the PROTAC compounds 1-55 provided in the examples of the present disclosure and a positive control sample ARV-471 (source: Innochem) were prepared to treat the cells, and the cells were treated at 37°C in a cell culture incubator with 5% CO2 for 6 days. Cell viability was detected using a CCK-8 kit (Beyotime, Product number: C0040) according to the manufacturer's instructions. The IC50 values of each PROTAC compound after 6 days of treatment were calculated using GraphPadPrism software based on the inhibition rate, and the results are shown in Table 4. Table 4 IC50 values for inhibition of the proliferation of MCF-7 cells by the PROTAC compounds of the present disclosure and positive control sample
# T-47D cells = test: Inhibition of cell proliferation in T-47D cells (CCK-8, 6 days); conditions: 6 days of treatment
# How it was run: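 T-47D cells at 3,000 cells/well in RPMI 1640 with 10% FBS were exposed to a concentration series of PROTAC compounds for 6 days at 37 °C, 5% CO2. Viability was read by CCK-8, and IC50 values were derived for proliferation inhibition.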
# MCF-7 cells [3] = test: Inhibition of cell proliferation of MCF-7 cells (CCK-8, 9 days)
# How it was run: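 MCF-7 cells seeded at 800 cells/well in DMEM with 10% FBS, exposed to a range of compound concentrations for 9 days at 37°C, 5% CO2. Viability read by CCK-8; IC50 derived for proliferation inhibition.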
# ERα [4] = target: T1, ERα; test: Degradation of ERα in MCF-7 cells (immunoblotting, 4 h)
# How it was run: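 MCF-7 cells treated 4 h at 37°C with compounds at 0.15-1000nM final. ERα in lysates measured by immunoblot, with band grayscale normalized to an internal reference protein. Degradation rate calculated against DMSO-treated control.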
# [5] = treated for 9 days, CCK-8 kit (Table 6)
SMILES,Degradation rate (%) of ERα in T-47D cells (ERα [1]; 10nM compound) [%],IC50 (MCF-7 cells [2]) [nM],IC50 (T-47D cells; Table 2) [nM],IC50 (T-47D cells; Table 3) [nM],IC50 (MCF-7 cells [3]; [5]) [nM],Degradation rate (%) of ERα in MCF-7 cells (ERα [4]; 10nM compound) [%],Degradation rate (%) of ERα in T-47D cells (ERα [1]; 1nM compound) [%],"IC50 (MCF-7 cells [2]; Homo sapiens, MCF7, 144 h) [nM]","IC50 (T-47D cells; Homo sapiens, T47D, 144 h, Table 2) [nM]","IC50 (MCF-7 cells [3]; Homo sapiens, MCF7, 216 h, 9 days of treatment, CCK-8, Table 5) [nM]",Degradation rate (%) of ERα in MCF-7 cells (ERα [4]; 1nM compound) [%]
O=C1CCC(N2C(=O)c3cc4c(cc3C2=O)C2(CCN(CC3CCN(c5ccc(C6c7ccc(O)cc7CCC6c6ccccc6)cc5)CC3)CC2)CO4)C(=O)N1 (stereo not shown) [A8],-22,19000,104,104,19,-42,,,,,
O=C1CCC(N2C(=O)c3cc4c(cc3C2=O)OC2(CC4)CCN(C3CCC4(CC3)CCN(c3ccc(C5c6ccc(O)cc6CCC5c5ccccc5)cc3)CC4)CC2)C(=O)N1 (stereo not shown) [A12],-1,4600,127,127,4.6,4,,,,,
O=C1CCC(N2Cc3cc4c(cc3C2=O)OCC2(CCN(C3CCC5(CC3)CCN(c3ccc(C6c7ccc(O)cc7CCC6c6ccccc6)cc3)CC5)CC2)O4)C(=O)N1 (stereo not shown) [A26],40,3780,21,,,13,,,,,
O=C1CCC(N2Cc3cc4c(cc3C2=O)OCC2(CCN(C3CCC5(CC3)CN(c3ccc(C6c7ccc(O)cc7CCC6c6ccccc6)cc3)C5)CC2)O4)C(=O)N1 (stereo not shown) [A27],-15,4360,15,,,4,,,,,
O=C1CCC(N2Cc3cc4c(cc3C2=O)CCC2(CCN(C3C[C@@H]5CN(c6ccc(C7c8ccc(O)cc8CCC7c7ccccc7)cc6)C[C@@H]5C3)CC2)O4)C(=O)N1 (stereo partly shown) [A29],-2,5480,215,,,8,,,,,
O=C1CCC(N2Cc3cc4c(cc3C2=O)OC2(CC4)CN(C3CCC4(CC3)CCN(c3ccc(C5c6ccc(O)cc6CCC5c5ccccc5)cc3)CC4)C2)C(=O)N1 (stereo not shown) [A30],46,30200,11.8,,,23,,,,,
"O=C1CC[C@H](N2Cc3cc(N4CCN(CC5CCN(c6ccc([C@@H]7c8ccc(O)cc8CC[C@@H]7c7ccccc7)cc6)CC5)CC4)ccc3C2=O)C(=O)N1 [ARV-471, reference compound]",85,,,,,76,61,17900,1.7,70,38
O=C1CCC(N2Cc3cc4c(cc3C2=O)OC2(CC4)CCN(CC3CCN(c4ccc(C5c6ccc(O)cc6CCC5c5ccccc5)cc4)C3)CC2)C(=O)N1 (stereo not shown) [B2],-92,10200,229,,,-26,,,,,
O=C1CCC(N2Cc3cc4c(cc3C2=O)CCC2(CCN(CC3CCN(c5ccc(C6c7ccc(O)cc7CCC6c6ccccc6)cc5)C3)CC2)O4)C(=O)N1 (stereo not shown) [B4],-9,10000,56.9,,,-34,,,,,
